Assay [1] is described as follows: Inhibition of chymotrypsin-like activity of 26S proteasome.
A short description of assay [2]: Inhibition of chymotrypsin-like activity of human liver 26S proteasome using Suc-LLVY-AMC substrate.
Assay [3] can be described thus: Inhibition of chymotrypsin-like activity of 26S proteasome in human Molt4 cells using MeOSuc-Phe-Leu-Phe-AFC substrate. The format is cell-based. Particulars: MOLT-4.

In turn, `CC(C)C[C@@H](C=O)NC(=O)[C@H](CCCN/C(N)=N/[N+](=O)[O-])NC(=O)C(CCCCCCCCN1C(=O)c2ccccc2C1=O)C1CCCC1` (some centres undefined) had an IC50 in assay [1] of 2 nM. Still for that read-out and setting: under `CC(C)C[C@@H](C=O)NC(=O)[C@H](CCCN/C(N)=N/[N+](=O)[O-])NC(=O)C(CCCCCCCCC#N)C1CCCC1` (some centres undefined) stands 6 nM. `CC(C)C[C@H](NC(=O)[C@H](CCCN/C(N)=N/[N+](=O)[O-])NC(=O)C(CCCCCCCCC#N)C1CCCC1)C(=O)C(=O)NCCNS(=O)(=O)c1ccccc1` (some centres undefined) gave an IC50 in assay [1] of 1 nM. Compared with the last molecule, the IC50 is about 6-fold lower.

`CC(C)C[C@H](NC(=O)[C@H](CCCN/C(N)=N/[N+](=O)[O-])NC(=O)C(CCCCCCCCC#N)C1CCCC1)B1OC(C)(C)C(C)(C)O1` (some centres undefined) yielded an IC50 in assay [1] of 6 nM. Consider `COCCOCCOCC(=O)N[C@H](C(=O)N[C@@H](CC(C)C)B1O[C@@H]2C[C@@H]3C[C@@H](C3(C)C)[C@]2(C)O1)[C@@H](C)O`, for which, in assay [2], the IC50 is over 10 nM.

In assay [2], `CC(C)C[C@H](NC(=O)[C@@H](NC(=O)OC(C)(C)C)[C@@H](C)O)B1O[C@@H]2C[C@@H]3C[C@@H](C3(C)C)[C@]2(C)O1` displayed an IC50 of over 10 nM.

As to `CC(C)C[C@H](NC(=O)[C@@H](NC(=O)OCc1ccccc1)[C@@H](C)O)B1O[C@@H]2C[C@@H]3C[C@@H](C3(C)C)[C@]2(C)O1`, the IC50 in assay [2] was over 10 nM.

As for `CC(C)C[C@H](NC(=O)[C@@H](N)[C@@H](C)O)B1O[C@@H]2C[C@@H]3C[C@@H](C3(C)C)[C@]2(C)O1`, the IC50 in assay [2] is over 10 nM.

In the case of `CC(C)C[C@H](NC(=O)[C@@H](NC(=O)c1ccccc1)[C@@H](C)O)B1O[C@@H]2C[C@@H]3C[C@@H](C3(C)C)[C@]2(C)O1`, in assay [2], the IC50 is over 10 nM. Regarding `CCCCCC(=O)N[C@H](C(=O)N[C@@H](CC(C)C)B1O[C@@H]2C[C@@H]3C[C@@H](C3(C)C)[C@]2(C)O1)[C@@H](C)O`, the IC50 in assay [2] is over 10 nM. With `CC(C)C[C@H](NC(=O)[C@@H](NC(=O)c1cnccn1)[C@@H](C)O)B1O[C@@H]2C[C@@H]3C[C@@H](C3(C)C)[C@]2(C)O1`, the IC50 in assay [2] was over 10 nM. In the case of `CC(C)C[C@H](NC(=O)[C@H](CCCN/C(N)=N/[N+](=O)[O-])NC(=O)C(CCCCCCCCN1C(=O)c2ccccc2C1=O)C1CCCC1)B1OC2C[C@@H]3C[C@@H](C3(C)C)[C@]2(C)O1` (some centres undefined), in assay [3], a half-maximal effect (EC50) was put at 70 nM. Also, the IC50 in assay [2] was 3.5 nM. Regarding `CC(C)C[C@H](NC(=O)[C@@H](NC(=O)C(CCCCCCCCN1C(=O)c2ccccc2C1=O)C1CCCC1)[C@@H](C)O)B1O[C@@H]2C[C@@H]3C[C@@H](C3(C)C)[C@]2(C)O1` (mixture of isomers), the midpoint of the response in assay [3], the EC50, lay at 100 nM. In assay [2], this molecule had an IC50 of 7 nM. For `CC(C)C[C@H](NC(=O)C(NC(=O)[C@H](CC(C)C)NC(=O)OCc1ccccc1)C(C)O)B1O[C@@H]2C[C@@H]3C[C@@H](C3(C)C)[C@]2(C)O1` (single isomer, unassigned), in that order: 120 nM and 1 nM. For `CC(C)C[C@H](NC(=O)[C@H](Cc1ccccc1)NC(=O)c1cnccn1)B(O)O` [BORTEZOMIB], in that order: 21 nM and 4 nM.

The IC50 is the midpoint of a concentration-inhibition curve. A word on the EC50: it is the concentration at which the effect is half-maximal. Lower therefore signals an effect from little substance.
